The record followed here is PMC9873280, “In silico identification and biological evaluation of a selective MAP4K4 inhibitor against pancreatic cancer” (Journal of Enzyme Inhibition and Medicinal Chemistry, 2023).

Common to all, as to assay type: biochemical
Assay [1] addresses T1, MAP4K4 (Homo sapiens, UniProt O95819).
T1 construct: recombinant kinase of the ThermoFisher SelectScreen service
As to the kind of experiment: Z'LYTE kinase activity assay. As to conditions: 1 h incubation with ATP.

The target of assay [2] is T1, MAP4K4. As to the kind of experiment: Z'LYTE kinase activity assay. The source says: Z'LYTE kinase activity assay on MAP4K4
The target in a further assay is T2, MAP4K7 (Homo sapiens, UniProt Q9UKE5).
T2 construct: gene TNIK; recombinant kinase of a commercial 81-kinase panel
As to the kind of experiment: kinase profiling panel. As to conditions: read-out: % inhibition at 150 nM.

A further assay concerns the target T3, MAP4K6 (Homo sapiens, UniProt Q8N4C8).
T3 construct: gene MINK1; recombinant kinase of a commercial 81-kinase panel
As to the kind of experiment: kinase profiling panel. As to conditions: read-out: % inhibition at 150 nM.

Another assay addresses T4, MAP4K5 (Homo sapiens, UniProt Q9Y4K4).
T4 construct: recombinant kinase of a commercial 81-kinase panel
As to the kind of experiment: kinase profiling panel. As to conditions: read-out: % inhibition at 150 nM.

T1 sequence (O95819 2-1239): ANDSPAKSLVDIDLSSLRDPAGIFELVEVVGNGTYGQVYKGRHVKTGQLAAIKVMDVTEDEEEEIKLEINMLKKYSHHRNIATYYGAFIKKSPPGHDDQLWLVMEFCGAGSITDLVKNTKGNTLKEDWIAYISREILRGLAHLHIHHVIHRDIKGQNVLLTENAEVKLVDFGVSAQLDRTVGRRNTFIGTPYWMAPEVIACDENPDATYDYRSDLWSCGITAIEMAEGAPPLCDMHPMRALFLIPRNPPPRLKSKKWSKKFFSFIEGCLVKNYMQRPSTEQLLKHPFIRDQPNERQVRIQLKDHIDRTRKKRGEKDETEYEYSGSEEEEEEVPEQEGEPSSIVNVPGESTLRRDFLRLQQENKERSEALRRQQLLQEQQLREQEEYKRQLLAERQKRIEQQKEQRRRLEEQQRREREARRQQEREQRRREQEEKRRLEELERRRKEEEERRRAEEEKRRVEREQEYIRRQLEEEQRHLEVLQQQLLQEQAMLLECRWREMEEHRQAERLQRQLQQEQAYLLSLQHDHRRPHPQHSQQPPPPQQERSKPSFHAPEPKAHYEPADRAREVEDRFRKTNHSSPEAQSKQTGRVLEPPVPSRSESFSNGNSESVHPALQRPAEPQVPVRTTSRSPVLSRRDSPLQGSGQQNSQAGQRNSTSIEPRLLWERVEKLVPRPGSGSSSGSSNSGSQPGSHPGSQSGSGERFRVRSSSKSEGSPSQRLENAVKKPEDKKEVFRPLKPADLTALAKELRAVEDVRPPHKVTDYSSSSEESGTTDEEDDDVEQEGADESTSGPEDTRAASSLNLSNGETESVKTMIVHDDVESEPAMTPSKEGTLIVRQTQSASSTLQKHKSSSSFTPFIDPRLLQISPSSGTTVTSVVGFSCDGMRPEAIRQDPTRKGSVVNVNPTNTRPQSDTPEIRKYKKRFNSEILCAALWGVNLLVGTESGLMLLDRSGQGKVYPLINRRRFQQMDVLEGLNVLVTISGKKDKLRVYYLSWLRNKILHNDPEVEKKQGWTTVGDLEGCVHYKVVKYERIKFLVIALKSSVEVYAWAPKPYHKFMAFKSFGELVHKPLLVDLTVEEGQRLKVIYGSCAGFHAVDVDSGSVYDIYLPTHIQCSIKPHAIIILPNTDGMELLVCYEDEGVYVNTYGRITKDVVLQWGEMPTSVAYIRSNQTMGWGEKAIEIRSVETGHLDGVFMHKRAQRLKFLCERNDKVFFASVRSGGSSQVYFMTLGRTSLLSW
T2 sequence (Q9UKE5 whole entry): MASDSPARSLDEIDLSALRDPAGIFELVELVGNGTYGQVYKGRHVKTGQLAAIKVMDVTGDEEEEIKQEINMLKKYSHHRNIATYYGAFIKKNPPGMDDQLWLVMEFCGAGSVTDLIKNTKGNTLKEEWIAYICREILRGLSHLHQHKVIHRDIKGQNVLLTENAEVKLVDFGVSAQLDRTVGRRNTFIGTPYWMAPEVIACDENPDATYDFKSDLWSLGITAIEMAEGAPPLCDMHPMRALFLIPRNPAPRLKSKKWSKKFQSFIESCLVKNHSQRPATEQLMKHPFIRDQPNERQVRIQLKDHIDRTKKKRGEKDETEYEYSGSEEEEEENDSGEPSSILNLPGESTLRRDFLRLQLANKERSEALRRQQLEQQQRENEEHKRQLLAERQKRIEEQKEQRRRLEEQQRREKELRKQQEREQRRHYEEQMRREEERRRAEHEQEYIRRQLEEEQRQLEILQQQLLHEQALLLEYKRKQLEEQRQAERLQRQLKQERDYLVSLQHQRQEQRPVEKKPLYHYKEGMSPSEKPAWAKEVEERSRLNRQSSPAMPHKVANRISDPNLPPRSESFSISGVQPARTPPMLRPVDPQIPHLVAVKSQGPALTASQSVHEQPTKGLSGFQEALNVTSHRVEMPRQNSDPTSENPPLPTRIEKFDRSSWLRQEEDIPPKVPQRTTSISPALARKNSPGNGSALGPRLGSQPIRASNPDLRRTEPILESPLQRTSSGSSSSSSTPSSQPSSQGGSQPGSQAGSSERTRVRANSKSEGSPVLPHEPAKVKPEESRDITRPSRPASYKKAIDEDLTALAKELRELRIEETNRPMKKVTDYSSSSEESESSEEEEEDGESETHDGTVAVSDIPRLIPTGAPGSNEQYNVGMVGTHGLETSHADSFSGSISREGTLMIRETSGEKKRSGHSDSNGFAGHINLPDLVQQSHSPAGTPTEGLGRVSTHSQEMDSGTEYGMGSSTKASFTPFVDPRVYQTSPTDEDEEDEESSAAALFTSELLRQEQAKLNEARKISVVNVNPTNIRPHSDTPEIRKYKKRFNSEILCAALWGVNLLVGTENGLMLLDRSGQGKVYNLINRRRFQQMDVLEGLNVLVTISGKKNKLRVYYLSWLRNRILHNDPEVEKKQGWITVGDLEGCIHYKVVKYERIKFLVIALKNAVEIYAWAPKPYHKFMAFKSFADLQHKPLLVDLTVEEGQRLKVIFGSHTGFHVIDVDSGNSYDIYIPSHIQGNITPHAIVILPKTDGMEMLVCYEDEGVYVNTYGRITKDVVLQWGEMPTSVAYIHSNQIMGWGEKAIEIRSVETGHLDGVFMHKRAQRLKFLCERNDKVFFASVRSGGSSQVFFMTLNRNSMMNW
T3 sequence (Q8N4C8 whole entry): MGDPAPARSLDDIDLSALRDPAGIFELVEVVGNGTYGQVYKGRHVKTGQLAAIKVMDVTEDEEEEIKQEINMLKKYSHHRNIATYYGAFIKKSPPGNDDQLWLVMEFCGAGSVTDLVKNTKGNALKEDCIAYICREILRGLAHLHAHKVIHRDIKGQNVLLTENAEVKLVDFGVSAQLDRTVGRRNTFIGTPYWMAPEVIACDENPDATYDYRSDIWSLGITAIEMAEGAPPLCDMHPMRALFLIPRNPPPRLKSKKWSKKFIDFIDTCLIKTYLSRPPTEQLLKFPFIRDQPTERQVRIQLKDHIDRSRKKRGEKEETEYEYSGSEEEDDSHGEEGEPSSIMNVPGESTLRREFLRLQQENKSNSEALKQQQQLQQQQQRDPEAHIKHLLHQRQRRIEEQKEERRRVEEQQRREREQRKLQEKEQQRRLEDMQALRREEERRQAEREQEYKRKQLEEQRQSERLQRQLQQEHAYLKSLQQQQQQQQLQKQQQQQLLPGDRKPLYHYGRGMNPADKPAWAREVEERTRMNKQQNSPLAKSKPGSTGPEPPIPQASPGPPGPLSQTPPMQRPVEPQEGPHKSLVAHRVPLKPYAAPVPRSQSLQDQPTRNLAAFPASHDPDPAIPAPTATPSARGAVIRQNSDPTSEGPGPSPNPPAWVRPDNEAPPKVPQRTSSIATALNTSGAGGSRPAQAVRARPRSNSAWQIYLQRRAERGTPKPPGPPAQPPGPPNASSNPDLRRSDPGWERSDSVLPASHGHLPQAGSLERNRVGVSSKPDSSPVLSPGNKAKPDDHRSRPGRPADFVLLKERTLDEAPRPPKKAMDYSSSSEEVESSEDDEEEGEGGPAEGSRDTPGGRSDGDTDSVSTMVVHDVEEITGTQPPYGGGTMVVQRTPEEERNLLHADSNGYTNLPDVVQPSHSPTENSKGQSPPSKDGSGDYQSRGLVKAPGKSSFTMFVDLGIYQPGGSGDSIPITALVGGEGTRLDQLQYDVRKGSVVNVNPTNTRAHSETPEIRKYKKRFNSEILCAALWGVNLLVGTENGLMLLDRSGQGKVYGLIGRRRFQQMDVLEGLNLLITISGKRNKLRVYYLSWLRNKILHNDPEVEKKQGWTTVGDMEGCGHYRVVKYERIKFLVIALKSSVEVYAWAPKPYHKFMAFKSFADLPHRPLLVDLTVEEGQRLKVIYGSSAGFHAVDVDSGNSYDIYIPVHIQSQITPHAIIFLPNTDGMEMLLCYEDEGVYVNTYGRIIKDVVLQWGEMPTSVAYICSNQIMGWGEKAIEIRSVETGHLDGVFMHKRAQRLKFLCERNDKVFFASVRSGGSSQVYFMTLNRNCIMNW
T4 sequence (Q9Y4K4 whole entry): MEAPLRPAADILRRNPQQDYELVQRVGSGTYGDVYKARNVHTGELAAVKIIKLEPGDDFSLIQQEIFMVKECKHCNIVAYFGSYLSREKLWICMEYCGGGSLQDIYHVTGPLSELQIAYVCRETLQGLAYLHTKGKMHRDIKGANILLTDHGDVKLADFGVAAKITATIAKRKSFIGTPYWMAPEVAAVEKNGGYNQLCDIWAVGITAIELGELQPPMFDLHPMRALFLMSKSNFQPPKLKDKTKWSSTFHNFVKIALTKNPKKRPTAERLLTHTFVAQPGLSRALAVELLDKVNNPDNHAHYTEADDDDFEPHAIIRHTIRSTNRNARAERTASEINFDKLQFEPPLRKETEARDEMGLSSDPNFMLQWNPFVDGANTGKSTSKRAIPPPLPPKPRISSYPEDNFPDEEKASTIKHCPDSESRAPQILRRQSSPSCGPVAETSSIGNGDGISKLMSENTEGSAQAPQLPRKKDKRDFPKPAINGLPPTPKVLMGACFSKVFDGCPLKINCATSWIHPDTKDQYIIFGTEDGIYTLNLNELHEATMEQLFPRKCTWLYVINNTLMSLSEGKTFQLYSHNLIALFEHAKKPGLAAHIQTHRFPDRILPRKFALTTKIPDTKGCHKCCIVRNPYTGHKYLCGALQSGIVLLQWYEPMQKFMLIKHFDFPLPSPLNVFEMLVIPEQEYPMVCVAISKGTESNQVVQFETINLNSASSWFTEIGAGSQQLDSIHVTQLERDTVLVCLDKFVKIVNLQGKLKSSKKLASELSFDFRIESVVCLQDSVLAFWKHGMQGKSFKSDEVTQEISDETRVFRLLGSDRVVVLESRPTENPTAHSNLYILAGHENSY

By IC50 is commonly meant the concentration needed to halve the response being measured. Low readings indicate higher potency, high ones lower potency. `CCOc1ccc(CNC(=O)c2ccc3c(c2)NC(=O)C(=Cc2cccc(Cl)c2)O3)cc1OC` [F389-0745] came in with a 50% inhibitory concentration (IC50) at MAP4K4 [1] of 384 nM.

On to `O=C1Nc2cc(C(=O)NCc3cccc(F)c3)ccc2OC1=Cc1ccc(Cl)cc1` [F389-0183], for which, at MAP4K4 [1], the IC50 worked out at 334 nM.

One may read the inhibition as the relative decrease from the control value, in per cent. With `CCOc1cc(CNC(=O)c2ccc3c(c2)NC(=O)C(=Cc2ccc(Cl)cc2)O3)ccc1OC` [F389-0164], the inhibition at 1 µM against MAP4K4 [2] is 67%. Compound `COc1cccc(CNC(=O)c2ccc3c(c2)NC(=O)C(=Cc2ccc(Cl)cc2)O3)c1` [F389-0093] gave an inhibition at 1 µM at MAP4K4 [2] of 70%. As to `CN1CCN(CCNC(=O)c2ccc3c(c2)NC(=O)C(=Cc2ccc(Cl)cc2)O3)CC1` [F389-0167], at MAP4K4 [1], it took 276 nM to reach half-maximal inhibition (IC50). For the compound `CSc1ccc(CNC(=O)c2ccc3c(c2)NC(=O)C(=Cc2cccc(Cl)c2)O3)cc1` [F389-0746], the half-inhibitory concentration (IC50) on MAP4K4 [1] worked out at 121 nM. The inhibition at 0.15 µM was determined as 27% on MAP4K7, 44% on MAP4K6 and 17% at MAP4K5. `O=C1Nc2cc(C(=O)NCc3cccc(F)c3)ccc2OC1=Cc1cccc(Cl)c1` [F389-0759] showed an inhibition at 1 µM against MAP4K4 [2] of 61%.

Take `O=C1Nc2cc(C(=O)NCc3ccccc3Cl)ccc2OC1=Cc1cccc(Cl)c1` [F389-0592]: testing at 1 µM on MAP4K4 [2] gave an inhibition of 57%. The compound `O=C1Nc2cc(C(=O)NCc3ccccc3F)ccc2OC1=Cc1ccc(Cl)cc1` [F389-0161] gave an inhibition at 1 µM against MAP4K4 [2] of 72%. Consider `CCOc1ccc(CNC(=O)c2ccc3c(c2)NC(=O)C(=Cc2ccc(Cl)cc2)O3)cc1OC` [F389-0169], for which 337 nM corresponded to half-maximal inhibition against MAP4K4 [1] (IC50). `CCOc1ccc(CNC(=O)c2ccc3c(c2)NC(=O)C(=Cc2cccc(Cl)c2)O3)cc1` [F389-0750]: the inhibition at 1 µM against MAP4K4 [2] is 67%. For the compound `COc1ccc(CCNC(=O)c2ccc3c(c2)NC(=O)C(=Cc2cccc(Cl)c2)O3)cc1OC` [F389-0604], the IC50 at MAP4K4 [1] was 189 nM. The compound `COc1cccc(CNC(=O)c2ccc3c(c2)NC(=O)C(=Cc2cccc(Cl)c2)O3)c1` [F389-0669] displayed an inhibition at 1 µM at MAP4K4 [2] of 59%. On the same count and under the same terms, next, `COc1ccccc1CNC(=O)c1ccc2c(c1)NC(=O)C(=Cc1ccc(Cl)cc1)O2` [F389-0092]: 68%; `CCOc1ccccc1CNC(=O)c1ccc2c(c1)NC(=O)C(=Cc1cccc(Cl)c1)O2` [F389-0738]: 57%.
